Measurements: patent US20230339886A1 (University of Florida Research Foundation, Incorporated, priority 2020, published 2023)
Read-outs that look alike come from different tables or passages of the source.

What was measured:
[1] = target: T1, REV-ERBα LBD (human; residues 281-614 Δ324-422) (Homo sapiens, UniProt P20393, DEL324-422); assay: TR-FRET corepressor interaction assay (REV-ERBα LBD, FITC-SMRT peptide); assay type: biochemical
T1 construct: 6×Histag-REV-ERBα LBD (human; residues 281-614 Δ324-422); made in house; host or cells: Escherichia coli
T1 sequence (P20393 with tags, fused parts or gaps DEL324-422): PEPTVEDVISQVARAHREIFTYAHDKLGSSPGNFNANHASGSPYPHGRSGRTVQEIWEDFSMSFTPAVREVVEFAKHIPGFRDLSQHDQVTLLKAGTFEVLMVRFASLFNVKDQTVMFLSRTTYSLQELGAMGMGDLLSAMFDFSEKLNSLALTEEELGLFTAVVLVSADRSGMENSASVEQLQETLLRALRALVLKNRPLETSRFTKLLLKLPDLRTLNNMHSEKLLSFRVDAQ
T1 sequence (Q9Y618 2335-2356 partner limits assumed): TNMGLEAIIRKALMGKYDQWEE
Method in brief: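 Compound serial dilutions (in DMSO, triplicate) incubated 2 h at 4 °C; Tb donor excited at 340 nm, emission read at 495 nm and FITC acceptor at 520 nm. TR-FRET ratio (520/495 nm) plotted against ligand concentration and fitted to a sigmoidal dose-response curve.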

REV-ERBβ = target: T2, REV-ERBβ (Homo sapiens, UniProt Q14995); assay: TR-FRET corepressor interaction assay (REV-ERBβ, FITC-SMRT peptide); assay type: biochemical; details: Table 2, read-out: REVERBβ agonism (EC50 class, FRET assay)
T2 construct: 6×Histag-REV-ERBα LBD (human; residues 381-579); made in house; host or cells: Escherichia coli
T2 sequence (Q14995 381-579): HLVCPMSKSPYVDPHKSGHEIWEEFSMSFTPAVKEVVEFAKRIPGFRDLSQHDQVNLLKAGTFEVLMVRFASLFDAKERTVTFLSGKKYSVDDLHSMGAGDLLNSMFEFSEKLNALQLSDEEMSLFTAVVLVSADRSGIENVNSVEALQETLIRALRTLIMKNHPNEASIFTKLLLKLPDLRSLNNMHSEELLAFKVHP
Method: TR-FRET corepressor interaction assay. The time-resolved fluorescence resonance energy transfer (TR-FRET) assay was performed in black low-volume 384-well plates (Greiner). […] Ligand stocks were prepared via serial dilution in DMSO, added to wells in triplicate, and plates were incubated at 4° C. for 2 h and read using a BioTek Synergy Neo multimode plate reader. The Tb donor was excited at 340 nm; its fluorescence emission was monitored at 495 nm, and the acceptor FITC emission was measured at 520 nm; and the TR-FRET ratio was calculated as the signal at 520 nm divided by the signal at 495 nm. Data were plotted using GraphPad Prism as TR-FRET ratio vs. ligand concentration and fit to sigmoidal dose response curve equation.
Exemplary compounds of the present disclosure were assayed as described above to assess agonism of REV-ERBα and REV-ERBβ.

[2] = Table 2, read-out: REVERBα agonism (EC50 class, FRET assay)
[3] = FITC-SMRT peptide, read-out: REVERBα agonism (EC50 class, FRET assay)

Row | Structure (SMILES) | EC50 [1, 2] [nM] | EC50 (REV-ERBβ) [nM] | EC50 [1, 3] [nM]
1 | Cc1noc(C)c1S(=O)(=O)NCCc1cn(CC(C)C)c2cc(-c3ccncc3)ccc12 [Compound 14] | > 3000 | > 3000 | 
2 | CC(C)Cn1cc(CCNS(=O)(=O)c2cccnc2)c2ccc(-c3ccncc3)cc21 [Compound 15] | 500 to 3000 | > 3000 | 
3 | COc1ccccc1-c1ccc2c(CCNS(=O)(=O)N(C)C)cn(CC(C)C)c2c1 [Example 58, N-{2-[6-(2-methoxylphenyl)-1-(2-methylpropyl)-1H-indol-3-yl]ethyl}-N,N-dimethylsulfuric diamide] |  | > 3000 | 
4 | CC(C)Cn1cc(CCNS(=O)(=O)N(C)C)c2ccc(-c3ccccc3Cl)cc21 [Example 78, N-{2-[6-(2-chlorophenyl)-1-(2-methylpropyl)-1H-indol-3-yl]ethyl}-N,N-dimethylsulfuric diamide] |  | > 3000 | 
5 | CC(C)Cn1cc(CCNS(=O)(=O)N(C)C)c2ccc(C3CC3)cc21 [Example 82, N-{2-[6-cyclopropyl-1-(2-methylpropyl)-1H-indol-3-yl]ethyl}-N,N-dimethylsulfuric diamide] |  | > 3000 | 
6 | CC(C)(C)Cn1cc([C@H](NS(=O)(=O)C2CCC2)C(F)F)c2ccc(-c3ccccc3C(F)(F)F)c(F)c21 [Example 552, (S)—N-(2,2-difluoro-1-(7-fluoro-1-neopentyl-6-(2-(trifluoromethyl)phenyl)-1H-indol-3-yl)ethyl)cyclobutanesulfonamide] |  |  | < 500
7 | CC(C)(C)Cn1cc([C@H](NS(=O)(=O)C2CC2)C(F)F)c2ccc(-c3ccccc3C(F)(F)F)c(F)c21 [Example 553, (S)—N-(2,2-difluoro-1-(7-fluoro-1-neopentyl-6-(2-(trifluoromethyl)phenyl)-1H-indol-3-yl)ethyl)cyclopropanesulfonamide] |  |  | < 500
8 | CC(C)(C)Cn1cc([C@H](NS(=O)(=O)C2CCC2)C(F)F)c2ccc(-c3ccc(F)cc3C(F)(F)F)cc21 [Example 562, (S)—N-(2,2-difluoro-1-(6-(4-fluoro-2-(trifluoromethyl)phenyl)-1-neopentyl-1H-indol-3-yl)ethyl)cyclobutanesulfonamide] |  |  | < 500
9 | [2H][C@](NS(=O)(=O)C1CCC1)(c1cn(CC(C)(C)C)c2cc(-c3ccccc3C(F)(F)F)ccc12)C(F)F [Example 563, (S)—N-(2,2-difluoro-1-(1-neopentyl-6-(2-(trifluoromethyl)phenyl)-1H-indol-3-yl)ethyl-1-d)cyclobutanesulfonamide] |  |  | < 500
10 | [2H]C([2H])(n1cc([C@H](NS(=O)(=O)C2CC2)C(F)(F)F)c2ccc(-c3ccccc3C(F)(F)F)cc21)C(C)(C)C [Example 564, (S)—N-(1-(1-(2,2-dimethylpropyl-1,1-d2)-6-(2-(trifluoromethyl)phenyl)-1H-indol-3-yl)-2,2,2-trifluoroethyl)cyclopropanesulfonamide] |  |  | < 500

Second part, the molecule after the results:

Row | EC50 [1, 2] [nM] | EC50 (REV-ERBβ) [nM] | EC50 [1, 3] [nM] | Structure (SMILES)
11 | < 500 | > 3000 |  | CC(C)Cn1cc(CCNS(=O)(=O)C2CCCC2)c2ccc(-c3ccncc3)cc21 [Compound 11]
12 | < 500 | > 3000 |  | CC(C)Cn1cc(CCNS(=O)(=O)CC(C)C)c2ccc(-c3ccncc3)cc21 [Compound 12]
13 | < 500 | > 3000 |  | CC(C)Cn1cc(CCNS(=O)(=O)C2CC2)c2ccc(-c3ccncc3)cc21 [Compound 13]
14 | < 500 | 500 to 3000 |  | CC(C)Cn1cc(CCNS(=O)(=O)N(C)C)c2ccc(C3CCCCC3)cc21 [Compound 16]
15 |  | 500 to 3000 |  | CC(C)Cn1cc(CCNS(=O)(=O)N(C)C)c2ccc(-c3ccncc3)cc21 [Compound 27, dimethyl({2-[1-(2-methylpropyl)-6-(pyridin-4-yl)-1H-indol-3-yl]ethyl}sulfamoyl)amine]
16 |  | 500 to 3000 |  | CC(C)Cn1cc(CCNS(=O)(=O)N(C)C)c2ccc(-c3ccccc3)cc21 [Compound 30, dimethyl({2-[1-(2-methylpropyl)-6-phenyl-1H-indol-3-yl]ethyl}sulfamoyl)amine]
17 |  | 500 to 3000 |  | CC(C)Cc1cn(CCNS(=O)(=O)N(C)C)c2ccc(-c3ccncc3)cc12 [Example 23, dimethyl({2-[3-(2-methylpropyl)-5-(pyridin-4-yl)-1H-indol-1-yl]ethyl}sulfamoyl)amine]
